Assay results taken from PMC8244912, “An oxytocin/vasopressin-related neuropeptide modulates social foraging behavior in the clonal raider ant” (PLoS Biology, 2021).
Entries after “also recorded” stand apart in the source; their conditions may differ. Where a SMILES comes first, the peptide text is derived from it. Bridges are numbered along the chain shown (N, C = ends).

What was measured:
[1] = biological target: O. biroi inotocin receptor (ObiroiItr_A) (Ooceraea biroi, UniProt A0A8F5LPT9); test: Calcium flux, HEK293T cells transfected with full-length inotocin receptor (FLIPR Calcium 4); type: cell-based; conditions: for HillSlope / LogEC50: variable slope; for LogEC50: X data log of Molar_Inotocin
From the text: RNA was isolated in TRIzol using the RNeasy (Qiagen, Germantown, Maryland, USA) purification kit with DNAse I (Qiagen) on-column digestion as in [52] from a sample that contained adult ants, larvae, and pupae and reverse-transcribed into cDNA. Full-length cDNAs for the O. biroi inotocin receptor were PCR amplified with primers 5′-[…]-3′ and 5′-[…]-3′, using the Easy-A high fidelity polymerase (Agilent, Santa Clara, California, USA) to generate PCR products with 5′-Kozak consensus sequences and 3′-A overhangs. The inotocin receptor cDNAs were cloned into the pcDNA3.3 TOPO TA cloning vector (Invitrogen, Waltham, Massachusetts, USA) following manufacturer’s guidelines.
The full-length inotocin receptor cDNA sequence that was cloned and used for calcium assays is ObiroiItr_A (GenBank MW660838; for protein sequence, see S1 Fig). We also tested splice variant ObiroiItr_H (GenBank MW660845; for protein sequence, see S1 Fig), which lacks TM4-7, for calcium activity.
Human embryonic kidney 293T (HEK293T) cells were cultured in DMEM supplemented with 10% FBS at 37°C in a tissue culture incubator with a humidified atmosphere containing 5% CO2. Cells were plated in 10-cm dishes, and, when they reached 60% to 70% confluency, they were transfected with a pcDNA3.3 vector containing approximately 1 ng of inotocin receptor cDNA or an empty vector as a control using Lipofectamine 2000. Cells were transfected directly into poly-D-lysine–coated 384-well plates and incubated for 48 hours at 37°C. Subsequently, cells were incubated with FLIPR Calcium 4 Assay kit dye for 1 hour in the incubator. The fluorescence (excitation, 488 nm; emission, 530 nm) of the wells was recorded using a Flex Station II 384 (Molecular Devices, San Jose, California, USA), […], in sextuplicate (see below for inotocin peptide synthesis). We calculated the EC50 values using Prism (GraphPad Software version 8) nonlinear regression, 4-parameter logistic curve fit. Dose curves were repeated at least 3 times on independently prepared samples and different days.

Ooceraea biroi ants = test: Pharmacological immersion, age- and brood-controlled colonies: distance traveled (automated tracking); type: in vivo; conditions: for foraging activity / distance traveled vs control peptide: immersion in 1 mM, 5 h, n = 20 ants
From the text: Mature O. biroi inotocin peptide (CLITNCPRG) was synthesized and cyclized at The Rockefeller University Proteomics Resource Center, along with a scrambled version of the peptide (NRPCGLTCI) as a negative control with identical amino acid composition.
For the full experiment (Fig 3), we set up 20 experimental colonies of line B ants that were color painted as previously described. Each colony consisted of 16 ants in an airtight Petri dish with 5-cm diameter. Eight ants in each colony were 3 weeks old, and 8 ants in each colony were 20 weeks old. We added ten 3- to 4-day-old larvae to each of 10 colonies and 10 white (young) pupae to each of the remaining 10 colonies. Brood items often die soon after introduction to a colony, so we added 2 extra brood items per colony to ensure there were 8 alive at the start of the experiment. After the ants had settled for 3 days, we adjusted the number of brood items to 8 per colony, after which we performed the pharmacological treatments. The rationale of having a 1:2 larvae-to-workers ratio in this experiment was to assess the possible effect of increased inotocin levels on worker behavior without saturating the brood signal, as ant larvae regulate worker foraging behavior in a dose-dependent manner.
On the day of the experiment, colonies were not fed. To avoid disturbance to the colony as much as possible, half the colony was left untreated, and half was treated. The treatments consisted of immersing the ants in 1 mM solution of freshly dissolved inotocin or control peptide diluted in water and kept on ice. The immersion took place in 1.5-ml Eppendorf tubes that were gently tapped against the bench top for 7 consecutive minutes, after which the liquid was removed using a 1.5-ml transfer pipette. The remaining liquid was removed with a Kimwipe, and ants were transferred to their source colony. In each colony, we treated 2 ants per age category with inotocin and 2 ants per age category with the control peptide. Ants were allowed to recover for 1 hour after the treatment before the start of the video recordings.
Videos were recorded for 5 hours at 5 frames per second using Logitech C910 USB cameras. Individual ants were tracked using anTraX [85]. In short, ants were segmented using a background subtraction and fixed threshold procedure. Blobs in consecutive frames were threaded into sequences using the Horn–Schunk optical flow method and then classified as single ants or multiple ants based on blob size and linkage criteria. Single ant blob sequences were classified into their appropriate IDs as detailed in [85]. Ants that were detected as single blobs were deemed “active,” and their location was recorded (Fig 3B). The activity level of an ant was defined as the total distance traveled, and an activity time course was created for each ant by summing its activity in time bins of 15 minutes for the entire duration of the experiment. All ants in a colony were tracked. The activity across ants from a given condition from all experimental colonies was averaged in each time bin. The resulting curves were fitted with first- or second-order polynomials using nonlinear regression (least squares fit). The fitted curves were compared using extra sum-of-squares F-tests to select for the best fitted model and to compare between fitted curves, and statistical significance thresholds were adjusted for 2 comparisons within experiments using Bonferroni corrections (old inotocin versus old mock and young inotocin versus young mock). […]

O. biroi inotocin receptor (ObiroiItr_A), sequence (A0A8F5LPT9 entry or part of it): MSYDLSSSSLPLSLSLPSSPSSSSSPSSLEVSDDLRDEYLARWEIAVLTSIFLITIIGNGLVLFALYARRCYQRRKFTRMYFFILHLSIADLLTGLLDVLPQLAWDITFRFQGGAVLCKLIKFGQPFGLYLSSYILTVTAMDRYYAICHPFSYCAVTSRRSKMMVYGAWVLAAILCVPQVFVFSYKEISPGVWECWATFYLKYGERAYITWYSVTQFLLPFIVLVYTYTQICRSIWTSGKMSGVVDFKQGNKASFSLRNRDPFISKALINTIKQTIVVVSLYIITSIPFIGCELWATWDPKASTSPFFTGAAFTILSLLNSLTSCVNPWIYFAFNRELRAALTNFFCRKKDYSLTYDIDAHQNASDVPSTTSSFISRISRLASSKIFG

Question: Which HillSlope ([1]; Fig 1C data, Experiment 33015, SE 0.01132, 95% CI 0.2802 to 0.3251) does the source give for `CC[C@H](C)[C@@H]1NC(=O)[C@H](CC(C)C)NC(=O)[C@@H](N)CSSC[C@@H](C(=O)N2CCC[C@H]2C(=O)N[C@@H](CCCNC(=N)N)C(=O)NCC(N)=O)NC(=O)[C@H](CC(N)=O)NC(=O)[C@H]([C@@H](C)O)NC1=O` [Inotocin] (H-CLITNCPRG-NH2; disulfide 1-6; N-terminus and C-terminus assumed) here?
Answer: 0.3027

Question: And the LogEC50 ([1]; Fig 1C data, Experiment 33015, SE 0.05558, 95% CI -11.24 to -11.02)?
Answer: -11.13

Question: What about the “calcium response” value ([1]; HEK293T cells expressing full-length itcR) of the same molecule?
Answer: responds in a dose-dependent manner to inotocin; also recorded: responded with calcium signals

Question: What about the HillSlope ([1]; S4A Fig, 032515_plate 2, SE 0.02063, 95% CI 0.2625 to 0.3443) of the same molecule?
Answer: 0.3034

Question: And the LogEC50 ([1]; S4A Fig, 032515_plate 2, SE 0.1002, 95% CI -11.47 to -11.07)?
Answer: -11.27

Question: What about the “half-maximal effective concentration (EC50), in words” value ([1]; cells transfected with the inotocin receptor, calcium signals) of the same molecule?
Answer: picomolar

Question: What about the “foraging activity / distance traveled vs control peptide” value (Ooceraea biroi ants; old ants, larvae present, p < 0.0002, Bonferroni corrected) of the same molecule?
Answer: forage more than old ants treated with a control peptide; also recorded: displayed increased foraging activity in the presence of larvae; also recorded: had higher average distance traveled than ants under any other experimental condition

Question: What about the “foraging activity / distance traveled vs control peptide” value (Ooceraea biroi ants; old ants, pupae present, p = 0.998, p > 0.99, Bonferroni corrected) of the same molecule?
Answer: no difference in foraging activity was found; also recorded: no effect of inotocin treatment was observed

Question: What about the “tendency to leave the nest” value (Ooceraea biroi ants; overall statement, contingent on age and social context) of the same molecule?
Answer: increases the tendency of ants to leave the nest

Question: What about the “foraging activity / distance traveled vs control peptide” value (Ooceraea biroi ants; young ants, larvae present, p = 0.106, p = 0.109, Bonferroni corrected) of the same molecule?
Answer: No difference in foraging activity was detected; also recorded: no behavioral difference

Question: And the “foraging activity / distance traveled vs control peptide” value (Ooceraea biroi ants; young ants, pupae present, p < 0.0002, Bonferroni corrected)?
Answer: foraged more when treated with inotocin; also recorded: slightly increased their activity; also recorded: increased their average distance traveled compared to ants under any other experimental condition
